In general, pKa refers to the pH at which an ionisable group is half protonated. What is called thermodynamic solubility is the concentration in solution at equilibrium with solid. The term solubility denotes the dissolved amount per volume that the medium holds. Low readings indicate little dissolved substance, high ones much dissolved substance. Broadly, the logP is the decadic logarithm of the partition coefficient of the neutral form, usually between octanol and water.

For series [1] the following is noted: cited from earlier work.
Series [2] can be described thus: Ionization state calculated from pKa and buffer pH. Type of series: physicochemical.
The conditions of series [3]: cited from earlier work; for Filtration: Result Range: % of reference, all filters.
Series [4] can be described thus: Equilibrium solubility, saturation shake-flask, centrifugation as phase separation. To be noted: for solubility thermodynamic at 24 h / solubility thermodynamic: Britton-Robinson buffer; for solubility thermodynamic at 24 h: continuously stirred, no sedimentation; for solubility thermodynamic: pH 7.4, Equilibrium solubility S sed, sedimented before centrifugation.
The nature of series [5]: Equilibrium solubility, saturation shake-flask, sedimentation as phase separation (reference, standard protocol). To be noted: for solubility: Britton-Robinson buffer, 6 h stirring, 18 h sedimentation, 25 °C.
For series [6] the following is noted: cited from earlier work. The source holds these as a separate data set.
The conditions of series [7]: pH 7.4.

≈ marks a conversion by molar mass, not a printed value. Where two headings read alike, the source gives them in different places.

For the molecule `NS(=O)(=O)c1cc2c(cc1Cl)NCNS2(=O)=O` [HCT, hydrochlorothiazide], the pKa in series [1] (first pKa for HCT) was 8.75. The “pKa (second value)” value in series [1] (second pKa of the diprotic acid) is listed as 9.96. In series [2] (pH 8.8), the “Fraction in dianionic form” value is 4%, the Fraction monoanionic is 51% and the Fraction unionized is given as 45%. In addition, in series [3] (pH 6.0), the “Filtration: Result Range” value is listed as 83–103% and the “Filtration: Closest to Reference (100%)” value is 102%. Besides, in series [3] (pH 8.8), the “Filtration: Result Range” value is 75–100% and the “Filtration: Closest to Reference (100%)” value was 100%. In series [3] (pH 11.0), the “Filtration: Result Range” value is 65–119% and the “Filtration: Closest to Reference (100%)” value was 100%.

For `O=C(O)Cc1ccccc1Nc1c(Cl)cccc1Cl` [DICL-NA, Diclofenac sodium], the Fraction ionized entry in series [2] (pH 2.0) is recorded as “about 1%”; in series [2] (pH 4.0), “around 50%”. Also, the “Measured concentration after filtration” value in series [3] (nylon filter, low pH values) was “dropped to zero”. Moreover, the “Filtration: Result Range” value in series [3] (pH 2.0) is given as 0–164%; in series [3] (pH 4.0) it was 0–103%; in series [3] (pH 10.0), 64–99%. In addition, the “Filtration: Closest to Reference (100%)” value in series [3] (pH 2.0) is recorded as 93%; in series [3] (pH 4.0), 103%; in series [3] (pH 10.0), 99%. In addition, the thermodynamic solubility at 24 h in series [4] (25 °C, pH 10, aqueous buffer, thermodynamic from solid, Equilibrium solubility S stir, pH 10.0, 10,000 rpm, 20 min) stood at 11200 µg/mL; in series [4] (pH 2, Equilibrium solubility S stir, pH 2.0, 5000 rpm, 5 min) it was 1.64 ± 0.04 µg/mL; in series [4] (pH 2, Equilibrium solubility S stir, pH 2.0, 5000 rpm, 10 min), 1.52 ± 0.22 µg/mL; in series [4] (pH 2, Equilibrium solubility S stir, pH 2.0, 5000 rpm, 20 min), 1.71 ± 0.07 µg/mL; in series [4] (pH 2, Equilibrium solubility S stir, pH 2.0, 10,000 rpm, 5 min), 1.82 ± 0.07 µg/mL; in series [4] (pH 2, Equilibrium solubility S stir, pH 2.0, 10,000 rpm, 10 min) it was 1.78 ± 0.07 µg/mL. Moreover, the thermodynamic solubility at 24 h came out at 2 ± 0.13 µg/mL in series [4] (pH 2, Equilibrium solubility S stir, pH 2.0, 10,000 rpm, 20 min); 2.7 ± 0.1 µg/mL in series [4] (pH 4, Equilibrium solubility S stir, pH 4.0, 5000 rpm, 5 min); 2.69 ± 0.24 µg/mL in series [4] (pH 4, Equilibrium solubility S stir, pH 4.0, 5000 rpm, 10 min); 2.58 ± 0.16 µg/mL in series [4] (pH 4, Equilibrium solubility S stir, pH 4.0, 5000 rpm, 20 min); 2.79 ± 0.2 µg/mL in series [4] (pH 4, Equilibrium solubility S stir, pH 4.0, 10,000 rpm, 5 min); 2.8 ± 0.11 µg/mL in series [4] (pH 4, Equilibrium solubility S stir, pH 4.0, 10,000 rpm, 10 min). The solubility (thermodynamic) at 24 h in series [4] (pH 4, Equilibrium solubility S stir, pH 4.0, 10,000 rpm, 20 min) amounted to 2.88 ± 0.18 µg/mL; in series [4] (pH 10, Equilibrium solubility S stir, pH 10.0, 5000 rpm, 10 min), 9810 ± 318 µg/mL; in series [4] (pH 10, Equilibrium solubility S stir, pH 10.0, 5000 rpm, 20 min), 10700 µg/mL; in series [4] (pH 10, Equilibrium solubility S stir, pH 10.0, 10,000 rpm, 5 min), 9660 ± 760 µg/mL. Besides, the “Centrifugation: Closest to Reference (100%)” value in series [4] (pH 2.0) came to 100%; in series [4] (pH 4.0) it was 99%; in series [4] (pH 10.0) it was 98%. For the same molecule, the solubility in series [5] (pH 2, Solubility (reference), pH 2.0) turned out to be 1.67 ± 0.05 µg/mL; in series [5] (pH 10, Solubility (reference), pH 10.0) it was 9470 ± 327 µg/mL. Also, the “Increase of solubility compared to the unionized form” value in series [5] (pH 10.0 (fully ionized) vs unionized form) came to 5670 fold.

Regarding `CC(=O)[C@H]1CC[C@H]2[C@@H]3CCC4=CC(=O)CC[C@]4(C)[C@H]3CC[C@]12C` [PROG, progesterone], the “Filtration: Result Range” value in series [3] (pH 7.4) is given as 55–98%. Also, the “Filtration: Closest to Reference (100%)” value in series [3] (pH 7.4) was 98%. Further, the solubility (thermodynamic) in series [4] (pH 7.4, 5000 rpm, 5 min) was determined as 10.9 ± 0.09 µg/mL (≈ 34.7 µM); in series [4] (pH 7.4, 5000 rpm, 10 min) it was 10.9 ± 0.09 µg/mL (≈ 34.7 µM); in series [4] (pH 7.4, 5000 rpm, 20 min), 11.5 ± 0.06 µg/mL (≈ 36.6 µM); in series [4] (pH 7.4, 10,000 rpm, 5 min) it was 11 ± 0.12 µg/mL (≈ 35 µM); in series [4] (pH 7.4, 10,000 rpm, 10 min) it was 11.6 ± 0.11 µg/mL (≈ 36.9 µM); in series [4] (pH 7.4, 10,000 rpm, 20 min) it was 12.4 ± 0.06 µg/mL (≈ 39.4 µM). Moreover, the solubility (thermodynamic) at 24 h in series [4] (pH 7.4, Equilibrium solubility S stir, pH 7.4, 5000 rpm, 5 min) is 11 ± 0.06 µg/mL (≈ 35 µM); in series [4] (pH 7.4, Equilibrium solubility S stir, pH 7.4, 5000 rpm, 10 min), 11.3 ± 0.14 µg/mL (≈ 35.9 µM); in series [4] (pH 7.4, Equilibrium solubility S stir, pH 7.4, 5000 rpm, 20 min) it was 12.8 ± 0.05 µg/mL (≈ 40.7 µM); in series [4] (pH 7.4, Equilibrium solubility S stir, pH 7.4, 10,000 rpm, 5 min), 11 ± 0.18 µg/mL (≈ 35 µM); in series [4] (pH 7.4, Equilibrium solubility S stir, pH 7.4, 10,000 rpm, 10 min), 11.7 ± 0.14 µg/mL (≈ 37.2 µM); in series [4] (pH 7.4, Equilibrium solubility S stir, pH 7.4, 10,000 rpm, 20 min) it was 13.3 ± 0.2 µg/mL (≈ 42.3 µM). The “Increase in measured solubility caused by centrifugation” value in series [4] (vs reference, pH 7.4) is “at least 20%”. In series [5] (pH 7.4, Solubility (reference), pH 7.4), the concentration in solution (solubility) was 8.98 ± 0.09 µg/mL (≈ 28.6 µM). The logP in series [6] was 3.48. Further, the “Centrifugation: Closest to Reference (100%)” value in series [7] amounted to 121%. In addition, the “Centrifugation: Result Range” value in series [7] is 121–148%.

The record behind these values is publication PMC12566593, “Effects of Different Centrifugation Parameters on Equilibrium Solubility Measurements” (Methods and Protocols, 2025).
